Key:
Format in all cases: in vivo
Monochoria vaginalis = experiment: Test Example 1: herbicidal effect test by soil application in paddy rice; settings: Pontederia vaginalis, 336 h, 120 g per 10 ares, 14 days after application, read-out: weed inhibition rate
Outline: (§1)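 Paddy soil in flooded Wagner pots (~3 cm water), weed seeds sown at 0–1 cm depth, greenhouse; emulsifiable concentrate diluted in water and applied by dropper immediately after sowing at 120 g active ingredient per 10 ares. Duplicate pots; weed inhibition rate (%) scored 14 days after application.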

[1] = system: Echinochloa crus-galli var. formosensis; experiment: as above; settings: Echinochloa crus-galli, 336 h, 120 g per 10 ares, 14 days after application, read-out: weed inhibition rate
Outline: as §1

Scirpus juncoides [2] = experiment: as above; settings: Schoenoplectiella juncoides, 336 h, 120 g per 10 ares, 14 days after application, read-out: weed inhibition rate
Outline: as §1

[3] = system: Echinochloa crus-galli var. formosensis; experiment: Test Example 2: herbicidal effect test by application during growth period of paddy rice; settings: Echinochloa crus-galli, 7 days after sowing, 120 g per 10 ares, 14 days after application, read-out: weed inhibition rate
Outline: (§2)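 Flooded paddy-soil pots (about 3 cm water) sown with 30 seeds per weed species and kept in a greenhouse. Emulsifiable concentrate applied by dropper seven days after sowing at 120 g active ingredient per 10 ares, in duplicate. Herbicidal effect scored 14 days after application.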

Scirpus juncoides [4] = experiment: as above; settings: Schoenoplectiella juncoides, 7 days after sowing, 120 g per 10 ares, 14 days after application, read-out: weed inhibition rate
Outline: as §2

Echinochloa crus-galli [5] = experiment: Test Example 8: herbicidal effect test by stem and leaf treatment in upland field; settings: Echinochloa crus-galli, 7 days after sowing, 7.5 g per 10 ares, 14 days after application, read-out: weed inhibition rate
Protocol: Herbicidal Effect Test by Stem and Leaf Treatment in Upland Field
(§3) Pots with an area of 36 cm^2 were filled with upland soil (alluvial loam), twenty seeds each of weeds of Digitaria ciliaris, Echinochloa crus-galli, Chenopodium album, and Amaranthus viridis were uniformly mixed with the top 1 cm layer of soil and the surface was lightly pressed down. Seven days after sowing, an emulsifiable concentrate prepared according to Formulation Example 5 using the compound shown below was diluted with water, and the diluted solution was sprayed onto the soil surface at a rate of 100 liters per 10 ares. The amount of the active ingredient to be applied was equivalent to 7.5 g per 10 ares. Fourteen days after chemical application, the herbicidal effect was evaluated according to the same criteria as in Test Example 1.

[6] = system: Echinochloa crus-galli var. formosensis; experiment: Test Example 6: herbicidal effect test by application during growth period of paddy rice; settings: Echinochloa crus-galli, 7 days after sowing, 7.5 g per 10 ares, 14 days after application, read-out: weed inhibition rate
Protocol: Herbicidal Effect Test by Application During Growth Period of Paddy Rice
Wagner pots with an area of […] were filled with paddy soil, followed by addition of water and incorporation of chemical fertilizer (N:P:K=16:16:16), after which puddling was performed. After that, seeds of Echinochloa crus-galli var. formosensis, broad-leaved weeds (Lindemia pyxidaria, and Monochoria vaginalis), and Scirpus juncoides were sown at a depth of 0 cm to 1 cm, 30 seeds each. Immediately after sowing, the pots were flooded and a water depth of approximately 3 cm was maintained. Subsequent management was conducted in a glass greenhouse. Seven days after sowing, an emulsifiable concentrate prepared according to Formulation Example 5 using the compound shown below was diluted with water, and a specified amount of the diluted solution was applied by dropper. The amount of the active ingredient to be applied was equivalent to 7.5 g per 10 ares. The test was conducted in duplicate for each chemical concentration group, and the herbicidal effect was evaluated 14 days after chemical application using the same criteria as in Test Example 1.

Digitaria ciliaris [7] = experiment: Test Example 3: herbicidal effect test by soil application in upland field; settings: Digitaria ciliaris, 1 day after sowing, 120 g per 10 ares, 14 days after application, read-out: weed inhibition rate
Outline: (§4)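 Twenty seeds per weed species were mixed into the top 1 cm of alluvial loam in pots. One day after sowing, an emulsifiable concentrate diluted in water was sprayed on the soil surface at 120 g active ingredient per 10 ares.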

Amaranthus viridis = experiment: as above; settings: Amaranthus viridis, 1 day after sowing, 120 g per 10 ares, 14 days after application, read-out: weed inhibition rate
Outline: as §4

Digitaria ciliaris [8] = experiment: Test Example 7: herbicidal effect test by soil application in upland field; settings: Digitaria ciliaris, 1 day after sowing, 7.5 g per 10 ares, 14 days after application, read-out: weed inhibition rate
Protocol: (§5) Herbicidal Effect Test by Soil Application in Upland Field
as §3, with “One day” for “Seven days”

Echinochloa crus-galli [9] = experiment: as above; settings: Echinochloa crus-galli, 1 day after sowing, 7.5 g per 10 ares, 14 days after application, read-out: weed inhibition rate
Protocol: as §5
as §3, with “One day” for “Seven days”

CCOC(C)O[C@H]1C[C@]2(C)O[C@@]1(C(C)C)C[C@H]2OCc1ccccc1F (stereo partly drawn) [1-213, (1R,2S,4S,5R)-2-(1-ethoxyethoxy)-5-((2-fluorobenzyl)oxy)-1-isopropyl-4-methyl-7-oxabicyclo[2.2.1]heptane]
≥ 80%: inhibition at 1200 g/ha (Monochoria vaginalis) | inhibition at 1200 g/ha [1] | inhibition at 1200 g/ha (Scirpus juncoides [2]) | inhibition at 1200 g/ha [3] | inhibition at 1200 g/ha (Scirpus juncoides [4]) | inhibition at 75 g/ha (Echinochloa crus-galli [5]) | inhibition at 75 g/ha [6] | inhibition at 1200 g/ha (Digitaria ciliaris [7]) | inhibition at 1200 g/ha (Amaranthus viridis) | inhibition at 75 g/ha (Digitaria ciliaris [8]) | inhibition at 75 g/ha (Echinochloa crus-galli [9])

Source: US20260327240A1, “1,4-CINEOLE DERIVATIVE AND INTERMEDIATE THEREOF, HERBICIDE CONTAINING SAID DERIVATIVE AS ACTIVE INGREDIENT, METHOD FOR USING HERBICIDE, AND METHOD FOR PREPARING AGROCHEMICAL COMPOSITION” (HOKKO CHEMICAL INDUSTRY CO., LTD., priority 2023, published 2026)
